Laboratory results as given in ChEMBL document CHEMBL3774333, “Identification of SNAIL1 Peptide-Based Irreversible Lysine-Specific Demethylase 1-Selective Inactivators” (J Med Chem, 2016).
Activity calls are given as the source filed them. The calls are words filed in the database; no cut-off is given here.

Legend:
[1] = target: T1, Lysine-specific histone demethylase 2 (Homo sapiens, UniProt Q8NB78); assay: biochemical
T1 sequence (Q8NB78 whole entry): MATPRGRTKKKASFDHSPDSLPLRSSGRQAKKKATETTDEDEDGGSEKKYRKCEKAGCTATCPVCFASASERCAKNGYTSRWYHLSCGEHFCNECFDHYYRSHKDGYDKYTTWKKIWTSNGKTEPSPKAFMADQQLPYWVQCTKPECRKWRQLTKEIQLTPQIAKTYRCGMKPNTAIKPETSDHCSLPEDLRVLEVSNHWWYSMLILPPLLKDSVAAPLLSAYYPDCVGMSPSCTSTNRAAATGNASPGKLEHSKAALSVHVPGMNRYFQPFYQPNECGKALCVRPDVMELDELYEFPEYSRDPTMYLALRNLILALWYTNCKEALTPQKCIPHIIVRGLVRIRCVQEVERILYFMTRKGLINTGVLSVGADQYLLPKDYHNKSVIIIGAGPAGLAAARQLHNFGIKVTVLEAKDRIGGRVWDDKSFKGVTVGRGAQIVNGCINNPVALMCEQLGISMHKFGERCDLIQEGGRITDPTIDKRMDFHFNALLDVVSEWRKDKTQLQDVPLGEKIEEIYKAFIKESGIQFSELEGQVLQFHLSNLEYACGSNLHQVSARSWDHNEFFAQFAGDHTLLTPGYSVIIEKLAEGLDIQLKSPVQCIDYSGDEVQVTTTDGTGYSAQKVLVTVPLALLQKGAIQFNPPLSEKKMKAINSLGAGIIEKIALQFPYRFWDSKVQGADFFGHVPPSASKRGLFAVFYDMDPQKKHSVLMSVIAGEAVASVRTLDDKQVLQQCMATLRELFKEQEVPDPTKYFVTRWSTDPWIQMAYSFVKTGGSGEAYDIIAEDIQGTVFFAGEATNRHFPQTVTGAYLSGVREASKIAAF
Description: Inhibition of full length N-terminal His-tagged human LSD2 (1 to 822 residues) expressed in Escherichia coli BL21(DE3) cells using H3K4me2 peptide substrate by MALDI-TOF mass spectrometric analysis

[2] = target: T2, Amine oxidase [flavin-containing] A (Homo sapiens, UniProt P21397); assay: biochemical
T2 sequence (P21397 whole entry): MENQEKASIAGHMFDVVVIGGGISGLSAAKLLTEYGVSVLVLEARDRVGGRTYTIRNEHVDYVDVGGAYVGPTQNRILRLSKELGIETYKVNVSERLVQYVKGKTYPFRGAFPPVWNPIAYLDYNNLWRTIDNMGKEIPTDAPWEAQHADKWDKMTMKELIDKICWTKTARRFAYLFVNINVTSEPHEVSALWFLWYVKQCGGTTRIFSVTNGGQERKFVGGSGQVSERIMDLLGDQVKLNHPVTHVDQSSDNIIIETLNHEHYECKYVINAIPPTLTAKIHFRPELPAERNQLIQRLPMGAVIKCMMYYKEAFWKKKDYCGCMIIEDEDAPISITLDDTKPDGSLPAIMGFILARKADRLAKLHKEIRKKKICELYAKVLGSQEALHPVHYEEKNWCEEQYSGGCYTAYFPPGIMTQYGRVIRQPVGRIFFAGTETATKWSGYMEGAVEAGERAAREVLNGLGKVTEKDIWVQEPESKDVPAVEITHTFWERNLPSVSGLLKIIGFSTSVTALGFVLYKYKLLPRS
Description: Inhibition of human recombinant MAO-A expressed in baculovirus infected BTI insect cells using (4S)-4,5-dihydro-2-(6-hydroxybenzothiazolyl)-4-thiazolecarboxylic acid as substrate incubated for 60 mins by MAO-Glo assay

[3] = target: T3, Lysine-specific histone demethylase 1A (Homo sapiens, UniProt O60341); assay: biochemical
Description: Inhibition of full length N-terminal His-tagged human recombinant LSD1 (1 to 852 residues) expressed in Escherichia coli BL21(DE3) cells using H3K4me2 peptide as substrate preincubated for 5 mins followed by substrate addition measured for 30 mins by peroxidase coupled assay

[4] = target: T4, Amine oxidase [flavin-containing] B (Homo sapiens, UniProt P27338); assay: biochemical
T4 sequence (P27338 whole entry): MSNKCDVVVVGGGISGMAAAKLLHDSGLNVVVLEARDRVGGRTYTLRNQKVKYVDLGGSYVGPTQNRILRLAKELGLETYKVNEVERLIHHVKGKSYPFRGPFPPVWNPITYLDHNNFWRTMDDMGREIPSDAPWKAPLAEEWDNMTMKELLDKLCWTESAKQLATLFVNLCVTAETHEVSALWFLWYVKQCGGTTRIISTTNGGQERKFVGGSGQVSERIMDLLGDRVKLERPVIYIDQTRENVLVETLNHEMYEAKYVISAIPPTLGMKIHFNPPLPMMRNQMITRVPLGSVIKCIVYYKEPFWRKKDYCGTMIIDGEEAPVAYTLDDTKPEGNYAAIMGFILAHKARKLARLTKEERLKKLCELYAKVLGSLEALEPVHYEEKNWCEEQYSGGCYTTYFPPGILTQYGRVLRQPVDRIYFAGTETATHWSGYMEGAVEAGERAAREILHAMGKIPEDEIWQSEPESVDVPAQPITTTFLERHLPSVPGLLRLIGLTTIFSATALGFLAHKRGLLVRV
Description: Inhibition of human recombinant MAO-B expressed in baculovirus infected BTI insect cells using (4S)-4,5-dihydro-2-(6-hydroxybenzothiazolyl)-4-thiazolecarboxylic acid as substrate incubated for 60 mins by MAO-Glo assay

[5] = target: Lysine-specific demethylase 5A (Homo sapiens, UniProt P29375)
Description: Inhibition of JARID1A (unknown origin) using H3K4me3 peptide substrate preincubated for 5 mins followed by substrate addition by MALDI-TOF mass spectrometric analysis

[6] = target: T3, Lysine-specific histone demethylase 1A; assay: Drug metabolism assessed as LSD1 (unknown origin)-mediated compound-FAD adduct formation after 22 hrs by MALDI-TOF mass spectrometric analysis in presence of excess of H3K4me2 substrate peptide; type: ADME
[7] = target: T3, Lysine-specific histone demethylase 1A; assay: Irreversible inhibition of LSD1 (unknown origin) using H3K4me2 peptide substrate assessed as compound-FAD adduct formation after 22 hrs by MALDI-TOF mass spectrometric analysis
[8] = target: T3, Lysine-specific histone demethylase 1A; assay: Inhibition of LSD1 in human HeLa cells assessed as H3K4me2/H3 ratio at 20 uM after 24 hrs by Western blot analysis in absence of fetal bovine serum; type: cell-based
[9] = target: T3, Lysine-specific histone demethylase 1A; assay: Time dependent irreversible inhibition of human LSD1 using H3K4me2 peptide as substrate at 0.1 to 6.4 uM incubated for 5 mins by fluorometric assay

Chain of Lysine-specific demethylase 5A (P29375 whole entry): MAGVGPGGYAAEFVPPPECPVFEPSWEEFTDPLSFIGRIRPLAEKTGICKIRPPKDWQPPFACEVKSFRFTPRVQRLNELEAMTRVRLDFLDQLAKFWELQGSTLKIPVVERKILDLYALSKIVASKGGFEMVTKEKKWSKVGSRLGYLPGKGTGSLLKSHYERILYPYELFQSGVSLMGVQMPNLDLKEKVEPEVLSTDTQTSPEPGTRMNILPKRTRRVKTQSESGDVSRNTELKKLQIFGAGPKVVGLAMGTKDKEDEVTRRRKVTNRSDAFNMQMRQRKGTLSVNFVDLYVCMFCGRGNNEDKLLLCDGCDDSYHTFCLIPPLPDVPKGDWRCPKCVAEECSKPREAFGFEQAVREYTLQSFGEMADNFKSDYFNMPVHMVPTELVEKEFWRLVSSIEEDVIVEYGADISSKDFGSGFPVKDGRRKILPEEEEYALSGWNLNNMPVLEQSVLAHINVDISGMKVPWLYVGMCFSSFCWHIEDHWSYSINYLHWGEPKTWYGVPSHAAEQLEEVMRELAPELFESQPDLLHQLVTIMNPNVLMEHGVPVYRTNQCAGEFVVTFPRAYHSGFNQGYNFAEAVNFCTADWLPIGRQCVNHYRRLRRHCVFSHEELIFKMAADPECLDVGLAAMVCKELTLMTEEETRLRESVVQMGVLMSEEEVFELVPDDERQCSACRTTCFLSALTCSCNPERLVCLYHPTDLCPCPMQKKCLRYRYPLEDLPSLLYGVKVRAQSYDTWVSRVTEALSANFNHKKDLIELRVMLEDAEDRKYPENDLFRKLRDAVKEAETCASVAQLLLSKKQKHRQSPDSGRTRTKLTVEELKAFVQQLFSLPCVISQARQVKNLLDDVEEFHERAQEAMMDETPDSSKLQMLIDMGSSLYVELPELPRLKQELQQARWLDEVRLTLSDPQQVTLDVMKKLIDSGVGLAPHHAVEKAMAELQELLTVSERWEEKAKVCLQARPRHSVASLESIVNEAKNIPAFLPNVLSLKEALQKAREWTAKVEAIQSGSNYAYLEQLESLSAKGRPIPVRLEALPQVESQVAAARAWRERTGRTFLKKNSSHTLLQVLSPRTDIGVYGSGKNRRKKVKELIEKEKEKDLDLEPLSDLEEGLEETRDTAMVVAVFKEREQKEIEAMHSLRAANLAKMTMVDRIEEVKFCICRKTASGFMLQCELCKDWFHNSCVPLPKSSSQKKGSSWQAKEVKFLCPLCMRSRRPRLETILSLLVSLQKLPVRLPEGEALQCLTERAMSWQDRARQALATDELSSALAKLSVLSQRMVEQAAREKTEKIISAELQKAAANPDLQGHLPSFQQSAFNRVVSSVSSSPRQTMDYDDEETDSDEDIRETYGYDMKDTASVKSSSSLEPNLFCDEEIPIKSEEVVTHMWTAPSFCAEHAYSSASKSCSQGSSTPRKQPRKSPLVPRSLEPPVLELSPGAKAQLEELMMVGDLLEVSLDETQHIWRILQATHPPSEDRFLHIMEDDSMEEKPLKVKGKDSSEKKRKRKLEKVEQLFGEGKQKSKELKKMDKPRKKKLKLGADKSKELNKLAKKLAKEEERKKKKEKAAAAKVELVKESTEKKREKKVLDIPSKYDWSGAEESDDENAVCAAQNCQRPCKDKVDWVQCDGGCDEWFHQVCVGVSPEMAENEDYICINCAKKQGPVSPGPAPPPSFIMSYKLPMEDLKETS

| IC50 [1] [µM] | IC50 [2] [µM] | IC50 [3] [µM] | IC50 [4] [µM] | IC50 [5] [µM] | Drug metabolism [6] | inhibition [7] | Ratio [8] | TDI [9] | Structure (SMILES) |
| --- | --- | --- | --- | --- | --- | --- | --- | --- | --- |
| > 50 | > 30 | 0.44 | > 30 | > 50 | metabolite_notdetected | – | – | – | CC(C)C[C@H](NC(=O)[C@H](CCCNN)NC(=O)[C@H](CO)NC(=O)[C@H](CCCNC(=N)N)NC(=O)[C@@H]1CCCN1)C(=O)N[C@H](C(=O)N[C@@H](CCCNC(=N)N)C(=O)N[C@@H](CCCCN)C(=O)N1CCC[C@H]1C(=O)N[C@@H](CO)C(=O)N[C@@H](CC(=O)O)C(=O)N1CCC[C@H]1C(=O)N[C@@H](CC(N)=O)C(=O)N[C@@H](CCCNC(=N)N)C(=O)N[C@@H](CCCCN)C(=O)N1CCC[C@H]1C(=O)N[C@@H](CC(N)=O)C(=O)N[C@@H](Cc1ccc(O)cc1)C(=O)N[C@@H](CO)C(=O)N[C@@H](CCC(N)=O)C(N)=O)C(C)C |
| – | – | – | – | – | – | Active | 1.34 | Active | CC(C)C[C@@H](NC(=O)[C@@H](CCCNN)NC(=O)[C@@H](CO)NC(=O)[C@H](CCCNC(=N)N)NC(=O)[C@@H]1CCCN1)C(=O)N[C@@H](C(=O)N[C@H](CCCNC(=N)N)C(=O)N[C@H](CCCCN)C(=O)N1CCC[C@@H]1C(=O)N[C@H](CO)C(=O)N[C@H](CC(=O)O)C(=O)N1CCC[C@@H]1C(=O)N[C@H](CC(N)=O)C(=O)N[C@H](CCCNC(=N)N)C(=O)N[C@H](CCCCN)C(=O)N1CCC[C@@H]1C(=O)N[C@@H](CC(N)=O)C(=O)N[C@H](Cc1ccc(O)cc1)C(=O)N[C@H](CO)C(=O)N[C@H](CCC(N)=O)C(N)=O)C(C)C |
